Experimental data from patent publication US10336709B2, “Lp-PLA2 inhibitors” (ABIDE THERAPEUTICS, INC., priority 2015, dated 2019).
Values belong to the compound of their own block, whether it stands above or below them.

Columns and labels:
ABHD6 = molecular target: T1, ABHD6 (Mus musculus, UniProt Q8R2Y0); assay: In vitro competitive activity-based protein profiling (HT-01 probe, gel band ABHD6); format: biochemical; set-up: ABHD6 % at 100 μM: scale not given here; settings: mouse brain membrane proteomes; for IC50: 30 min preincubation at 37° C
T1 construct: Mouse brain membrane proteomes (50 μL, 1.0 mg/mL total protein concentration) were preincubated; from tissue; host or cells: mouse brain membrane fraction
T1 sequence (Q8R2Y0 1-336): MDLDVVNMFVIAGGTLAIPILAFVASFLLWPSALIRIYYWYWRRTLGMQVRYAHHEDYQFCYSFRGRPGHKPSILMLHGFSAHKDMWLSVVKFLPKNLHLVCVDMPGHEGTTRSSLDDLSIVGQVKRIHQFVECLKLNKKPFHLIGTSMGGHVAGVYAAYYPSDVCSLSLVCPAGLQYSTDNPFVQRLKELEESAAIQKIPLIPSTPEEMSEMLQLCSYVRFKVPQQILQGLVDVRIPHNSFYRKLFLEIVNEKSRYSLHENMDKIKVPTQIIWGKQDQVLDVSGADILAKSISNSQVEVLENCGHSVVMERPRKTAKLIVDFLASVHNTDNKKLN
Procedure: (§1) Compounds are tested to assess their Lp-PLA2 and serine hydrolase activity using the following in vitro assays.
(§2) In Vitro Competitive Activity-Based Protein Profiling
(§3) Mouse brain membrane proteomes (50 μL, 1.0 mg/mL total protein concentration) were preincubated with varying concentrations of inhibitors at 37° C. After 30 min, HT-01 probe (1.0 μL, 50 μM in DMSO) was added and the mixture was incubated for another 30 min at room temperature. Reactions were quenched with SDS loading buffer (15 μL-4×) and run on SDS-PAGE gels. Following gel imaging, serine hydrolase activity was determined by measuring fluorescent intensity of gel bands corresponding to PLA2G7 and ABHD6 using ImageJ 1.49 k software.

Lp-PLA2 = molecular target: T2, Lp-PLA2 (Mus musculus, UniProt Q60963); assay: In vitro competitive activity-based protein profiling (HT-01 probe, gel band PLA2G7); format: biochemical; set-up: Lp-PLA2 % at 100 μM: scale not given here; settings: mouse brain membrane proteomes; for IC50: 30 min preincubation at 37° C
T2 construct: Mouse brain membrane proteomes (50 μL, 1.0 mg/mL total protein concentration) were preincubated; from tissue; host or cells: mouse brain membrane fraction
T2 sequence (Q60963 22-440): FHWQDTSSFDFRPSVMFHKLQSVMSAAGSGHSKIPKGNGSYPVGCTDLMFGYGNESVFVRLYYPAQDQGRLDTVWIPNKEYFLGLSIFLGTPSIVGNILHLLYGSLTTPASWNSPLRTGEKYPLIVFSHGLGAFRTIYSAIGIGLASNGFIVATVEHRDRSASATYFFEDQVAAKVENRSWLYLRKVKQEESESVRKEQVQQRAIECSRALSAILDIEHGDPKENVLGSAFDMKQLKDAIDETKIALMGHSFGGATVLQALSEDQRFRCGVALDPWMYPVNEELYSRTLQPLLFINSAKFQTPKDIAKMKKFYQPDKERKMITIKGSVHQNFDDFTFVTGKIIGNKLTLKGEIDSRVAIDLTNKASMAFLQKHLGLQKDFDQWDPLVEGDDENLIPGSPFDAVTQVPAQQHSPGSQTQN
Procedure: as §1, §2, §3

IC50 (ABHD6): < 100 nM
IC50 (Lp-PLA2): < 100 nM
Structure (SMILES): O=C(ON1C(=O)N[C@@H](Cc2ccccc2)C1=O)N1CCN(c2cccc(C(=O)N3CCCC3)c2Cl)CC1 [Example 7, (S)-4-benzyl-2,5-dioxoimidazolidin-1-yl 4-(2-chloro-3-(pyrrolidine-1-carbonyl)phenyl)piperazine-1-carboxylate]

IC50 (ABHD6): 100 to 1000 nM
IC50 (Lp-PLA2): < 100 nM
Structure (SMILES): O=C(ON1C(=O)N[C@@H](Cc2ccccc2)C1=O)N1CCN(c2cccc(C(=O)N3CCCCC3)c2Cl)CC1 [Example 8, (S)-4-benzyl-2,5-dioxoimidazolidin-1-yl 4-(2-chloro-3-(piperidine-1-carbonyl)phenyl)piperazine-1-carboxylate]

IC50 (ABHD6): < 100 nM
IC50 (Lp-PLA2): < 100 nM
Structure (SMILES): O=C(ON1C(=O)N[C@H](Cc2ccccc2)C1=O)N1CCN(c2cccc(C(=O)N3CCCC3)c2Cl)CC1 [Example 10, (R)-4-benzyl-2,5-dioxoimidazolidin-1-yl 4-(2-chloro-3-(pyrrolidine-1-carbonyl)phenyl)piperazine-1-carboxylate]

IC50 (ABHD6): < 100 nM
IC50 (Lp-PLA2): < 100 nM
Structure (SMILES): O=C(ON1C(=O)N[C@H](Cc2ccccc2)C1=O)N1CCN(c2cccc(C(=O)N3CCCCC3)c2Cl)CC1 [Example 11, (R)-4-benzyl-2,5-dioxoimidazolidin-1-yl 4-(2-chloro-3-(piperidine-1-carbonyl)phenyl)piperazine-1-carboxylate]

IC50 (ABHD6): < 100 nM
IC50 (Lp-PLA2): < 100 nM
Structure (SMILES): O=C(ON1C(=O)N[C@H](Cc2ccccc2)C1=O)N1CCN(c2cccc(C(=O)N3CCOCC3)c2Cl)CC1 [Example 12, (R)-4-benzyl-2,5-dioxoimidazolidin-1-yl 4-(2-chloro-3-(morpholine-4-carbonyl)phenyl)piperazine-1-carboxylate]

IC50 (ABHD6): < 100 nM
IC50 (Lp-PLA2): < 100 nM
Structure (SMILES): CN1CCN(C(=O)c2cccc(N3CCN(C(=O)ON4C(=O)N[C@@H](Cc5ccccc5)C4=O)CC3)c2Cl)CC1 [Example 14, (S)-4-benzyl-2,5-dioxoimidazolidin-1-yl 4-(2-chloro-3-(4-methylpiperazine-1-carbonyl)phenyl)piperazine-1-carboxylate]

IC50 (ABHD6): < 100 nM
IC50 (Lp-PLA2): < 100 nM
Structure (SMILES): O=C(ON1C(=O)N[C@@H](Cc2ccccc2)C1=O)N1CCN(c2ccc(C(=O)N3CCCCC3)cc2Cl)CC1 [Example 15, (S)-4-benzyl-2,5-dioxoimidazolidin-1-yl 4-(2-chloro-4-(piperidine-1-carbonyl)phenyl)piperazine-1-carboxylate]

IC50 (ABHD6): < 100 nM
IC50 (Lp-PLA2): < 100 nM
Structure (SMILES): O=C(ON1C(=O)N[C@@H](Cc2ccccc2)C1=O)N1CCN(c2cc(C(=O)N3CCCCC3)ccc2Cl)CC1 [Example 17, (S)-4-benzyl-2,5-dioxoimidazolidin-1-yl 4-(2-chloro-5-(piperidine-1-carbonyl)phenyl)piperazine-1-carboxylate]

IC50 (ABHD6): < 100 nM
IC50 (Lp-PLA2): < 100 nM
Structure (SMILES): CN1C(=O)N(OC(=O)N2CCN(c3cccc(C(=O)N4CCCCC4)c3Cl)CC2)C(=O)[C@@H]1Cc1ccccc1 [Example 20, (S)-4-benzyl-3-methyl-2,5-dioxoimidazolidin-1-yl 4-(2-chloro-3-(piperidine-1-carbonyl)phenyl)piperazine-1-carboxylate]

inhibition at 10 µM (ABHD6; at 10 μM): 100%
inhibition at 10 µM (Lp-PLA2): 100%
Structure (SMILES): O=C(ON1C(=O)N[C@@H](Cc2ccccc2)C1=O)N1CCCN(c2cccc(C(=O)N3CCCCC3)c2Cl)CC1 [Example 21, (S)-4-benzyl-2,5-dioxoimidazolidin-1-yl 4-(2-chloro-3-(piperidine-1-carbonyl)phenyl)-1,4-diazepane-1-carboxylate]

IC50 (ABHD6): < 100 nM
IC50 (Lp-PLA2): < 100 nM
Structure (SMILES): O=C(ON1C(=O)N[C@@H](Cc2ccc(C(F)(F)F)cc2)C1=O)N1CCN(c2cccc(C(=O)N3CCCCC3)c2Cl)CC1 [Example 22, (S)-2,5-dioxo-4-(4-(trifluoromethyl)benzyl)imidazolidin-1-yl 4-(2-chloro-3-(piperidine-1-carbonyl)phenyl)piperazine-1-carboxylate]

ABHD6 % at 100 μM (ABHD6): 50% at 100 μM
Lp-PLA2 % at 100 μM (Lp-PLA2): 50% at 100 μM
Structure (SMILES): O=C(ON1C(=O)N[C@@H](Cc2ccc(Cl)cc2)C1=O)N1CCN(c2cccc(C(=O)N3CCCCC3)c2Cl)CC1 [Example 23, (S)-4-(4-chlorobenzyl)-2,5-dioxoimidazolidin-1-yl 4-(2-chloro-3-(piperidine-1-carbonyl)phenyl)piperazine-1-carboxylate]

IC50 (ABHD6): < 100 nM
IC50 (Lp-PLA2): < 100 nM
Structure (SMILES): COc1ccc(C[C@@H]2NC(=O)N(OC(=O)N3CCN(c4cccc(C(=O)N5CCCCC5)c4Cl)CC3)C2=O)cc1 [Example 24, (S)-4-(4-methoxybenzyl)-2,5-dioxoimidazolidin-1-yl 4-(2-chloro-3-(piperidine-1-carbonyl)phenyl)piperazine-1-carboxylate]

The next lines start with the compound.

Structure (SMILES): CC(C)[C@@H]1NC(=O)N(OC(=O)N2CCN(c3cccc(C(=O)N4CCCC4)c3Cl)CC2)C1=O [Example 1, (S)-4-isopropyl-2,5-dioxoimidazolidin-1-yl 4-(2-chloro-3-(pyrrolidine-1-carbonyl)phenyl)piperazine-1-carboxylate]
IC50 (ABHD6): < 100 nM
IC50 (Lp-PLA2): 100 to 1000 nM

Structure (SMILES): CC(C)[C@@H]1NC(=O)N(OC(=O)N2CCN(c3cccc(C(=O)N4CCCCC4)c3Cl)CC2)C1=O [Example 2, (S)-4-isopropyl-2,5-dioxoimidazolidin-1-yl 4-(2-chloro-3-(piperidine-1-carbonyl)phenyl)piperazine-1-carboxylate]
IC50 (ABHD6): 100 to 1000 nM
IC50 (Lp-PLA2): 100 to 1000 nM

Structure (SMILES): CC(C)[C@@H]1NC(=O)N(OC(=O)N2CCN(c3cccc(C(=O)N4CCOCC4)c3Cl)CC2)C1=O [Example 3, (S)-4-isopropyl-2,5-dioxoimidazolidin-1-yl 4-(2-chloro-3-(morpholine-4-carbonyl)phenyl)piperazine-1-carboxylate]
IC50 (ABHD6): 100 to 1000 nM
IC50 (Lp-PLA2): 100 to 1000 nM

Structure (SMILES): CC(C)[C@H]1NC(=O)N(OC(=O)N2CCN(c3cccc(C(=O)N4CCCC4)c3Cl)CC2)C1=O [Example 4, (R)-4-isopropyl-2,5-dioxoimidazolidin-1-yl 4-(2-chloro-3-(pyrrolidine-1-carbonyl)phenyl)piperazine-1-carboxylate]
IC50 (ABHD6): 100 to 1000 nM
inhibition at 10 µM (Lp-PLA2): 75%

Structure (SMILES): CC(C)[C@H]1NC(=O)N(OC(=O)N2CCN(c3cccc(C(=O)N4CCCCC4)c3Cl)CC2)C1=O [Example 5, (R)-4-isopropyl-2,5-dioxoimidazolidin-1-yl 4-(2-chloro-3-(piperidine-1-carbonyl)phenyl)piperazine-1-carboxylate]
IC50 (ABHD6): 100 to 1000 nM
inhibition at 10 µM (Lp-PLA2): 75%

Structure (SMILES): CC(C)[C@H]1NC(=O)N(OC(=O)N2CCN(c3cccc(C(=O)N4CCOCC4)c3Cl)CC2)C1=O [Example 6, (R)-4-isopropyl-2,5-dioxoimidazolidin-1-yl 4-(2-chloro-3-(morpholine-4-carbonyl)phenyl)piperazine-1-carboxylate]
IC50 (ABHD6): 100 to 1000 nM
inhibition at 10 µM (Lp-PLA2): 75%

Structure (SMILES): O=C(ON1C(=O)N[C@@H](Cc2ccccc2)C1=O)N1CCN(c2cccc(C(=O)N3CCOCC3)c2Cl)CC1 [Example 9, (S)-4-benzyl-2,5-dioxoimidazolidin-1-yl 4-(2-chloro-3-(morpholine-4-carbonyl)phenyl)piperazine-1-carboxylate]
IC50 (ABHD6): 100 to 1000 nM
IC50 (Lp-PLA2): < 100 nM

Structure (SMILES): O=C(ON1C(=O)N[C@@H](Cc2ccccc2)C1=O)N1CCN(c2cccc(C(=O)N3CCCCC3)c2)CC1 [Example 13, (S)-4-benzyl-2,5-dioxoimidazolidin-1-yl 4-(3-(piperidine-1-carbonyl)phenyl)piperazine-1-carboxylate]
IC50 (ABHD6): < 100 nM
IC50 (Lp-PLA2): < 100 nM

Structure (SMILES): CN(C)C(=O)c1cccc(N2CCN(C(=O)ON3C(=O)N[C@@H](Cc4ccccc4)C3=O)CC2)c1Cl [Example 16, (S)-4-benzyl-2,5-dioxoimidazolidin-1-yl 4-(2-chloro-3-(dimethylcarbamoyl)phenyl)piperazine-1-carboxylate]
IC50 (ABHD6): < 100 nM
IC50 (Lp-PLA2): < 100 nM

Structure (SMILES): NC(=O)c1cccc(N2CCN(C(=O)ON3C(=O)N[C@@H](Cc4ccccc4)C3=O)CC2)c1Cl [Example 18, (S)-4-benzyl-2,5-dioxoimidazolidin-1-yl 4-(3-carbamoyl-2-chlorophenyl)piperazine-1-carboxylate]
ABHD6 % at 100 μM (ABHD6): 25% at 100 μM
Lp-PLA2 % at 100 μM (Lp-PLA2): 25% at 100 μM

Structure (SMILES): O=C(O)c1cccc(N2CCN(C(=O)ON3C(=O)N[C@@H](Cc4ccccc4)C3=O)CC2)c1Cl [Example 19, (S)-3-(4-((4-benzyl-2,5-dioxoimidazolidin-1-yloxy)carbonyl)piperazin-1-yl)-2-chlorobenzoic acid]
IC50 (ABHD6): > 1000 nM
IC50 (Lp-PLA2): > 1000 nM
